Data on two compounds can be found in US20230235290A1, “RECOMBINANT CARDIOMYOCYTES AND CARDIOMYOCYTE CELL LINES EXPRESSING HERG” (The Governors of the University of Alberta, priority 2016, published 2023).

Molecules are shown by their SMILES.

One data set concerns hMYO-hERG cells. The experiment in a line: SetuBlue cell viability (cell proliferation) assay, fluorometric, on hMYO-hERG cells. Type of data set: cell-based, human. On the procedure: (§1) Ninety-six (96) well plate(s) were seeded with hMYO-hERG cells containing approximately 1×10^4 cells/well. The plates were first incubated for 24 hours at 37° C., 5% CO2, followed by incubation for 48 hours at 28° C., 5% CO2. The wells were then treated with compound(s) of interest for 48 hours at standard cell cultural conditions. A negative control medium without cells was included to determine background signal.
(§2) The cells were then assayed for toxicity using a SetuBlue™ Cell Proliferation Assay Kit (Fluorometric) (BioIntersect, Catalog #F6009-2500-A). This kit uses a Blue indicator dye, Resazurin, to measure the metabolic capacity of cells. Resazurin is a non-fluorescent, cell permeable and non-toxic compound. Viable cells efficiently reduce the Blue indicator dye to resorufin, which is highly fluorescent and an indicator of cell viability.
(§3) The SetuBlue cell proliferation assay was performed as follows. The old media was aspirated and replaced with fresh 100 μl medium containing 10% volume of SetuBlue reagent containing the Blue indicator dye. The plates were incubated using standard cultural conditions for 1-4 hrs. The plates were than shaken for 10-20 seconds before recording fluorescence at 530/590 nm in PerkinElmer EnSpire® multimode plate reader. The relative fluorescence unit (“RFU”) value of each control well was subtracted from all RFU value to yield corrected RFU values. The corrected RFU values at 530/590 nm (Y axis, Log10 scale) were plotted against concentration of test compound (X axis). The CC50 value were determined by locating the X-axis value corresponding to one-half the maximum (plateau) RFU value using GraphPad Prism software.
In general terms: Block of hERG is tested as a sign of cardiac risk.

Assay in data set [1]: as above
Type of data set: cell-based, human. To be noted: human; hMYO-hERG cells, 48 hours treatment, fluorescence 530/590 nm, GraphPad Prism. On the procedure: as §1, §2, §3

The target in a further data set is hERG (Homo sapiens, UniProt Q12809). Conditions: literature statement; cited from earlier work.
Sequence of hERG (Q12809 whole entry): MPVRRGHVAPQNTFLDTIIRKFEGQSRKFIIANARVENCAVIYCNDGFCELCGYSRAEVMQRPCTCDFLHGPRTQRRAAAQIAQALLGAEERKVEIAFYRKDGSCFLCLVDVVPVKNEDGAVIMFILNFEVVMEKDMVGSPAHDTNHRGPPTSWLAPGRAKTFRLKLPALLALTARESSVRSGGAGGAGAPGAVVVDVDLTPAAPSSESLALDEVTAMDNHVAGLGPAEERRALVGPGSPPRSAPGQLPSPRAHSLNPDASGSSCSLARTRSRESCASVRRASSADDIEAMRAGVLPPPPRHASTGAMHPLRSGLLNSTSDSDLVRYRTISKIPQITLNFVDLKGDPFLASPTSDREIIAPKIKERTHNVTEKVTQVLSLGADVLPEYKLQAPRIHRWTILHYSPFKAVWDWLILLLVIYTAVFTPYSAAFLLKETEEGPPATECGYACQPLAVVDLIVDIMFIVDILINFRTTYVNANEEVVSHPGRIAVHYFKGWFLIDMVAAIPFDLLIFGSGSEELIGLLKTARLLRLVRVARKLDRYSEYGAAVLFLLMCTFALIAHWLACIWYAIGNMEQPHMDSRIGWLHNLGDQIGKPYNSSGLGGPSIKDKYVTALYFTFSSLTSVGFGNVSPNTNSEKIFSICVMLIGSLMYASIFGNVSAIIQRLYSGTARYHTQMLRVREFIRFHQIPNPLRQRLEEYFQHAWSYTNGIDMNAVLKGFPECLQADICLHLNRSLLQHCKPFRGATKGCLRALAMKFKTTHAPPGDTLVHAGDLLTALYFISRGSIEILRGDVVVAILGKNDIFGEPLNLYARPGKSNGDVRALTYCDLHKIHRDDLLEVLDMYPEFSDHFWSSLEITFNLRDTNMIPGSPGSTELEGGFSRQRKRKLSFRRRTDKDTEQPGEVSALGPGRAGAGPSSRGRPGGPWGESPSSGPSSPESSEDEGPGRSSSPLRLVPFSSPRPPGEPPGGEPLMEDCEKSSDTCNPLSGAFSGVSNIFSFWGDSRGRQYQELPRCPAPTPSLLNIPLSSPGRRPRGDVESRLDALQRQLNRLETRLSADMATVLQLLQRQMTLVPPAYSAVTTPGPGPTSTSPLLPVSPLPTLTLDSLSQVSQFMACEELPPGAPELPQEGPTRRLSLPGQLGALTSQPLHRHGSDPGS

Consider `COc1cccc2c1C(=O)c1c(O)c3c(c(O)c1C2=O)C[C@@](O)(C(=O)CO)C[C@@H]3O[C@H]1C[C@H](N)[C@H](O)[C@H](C)O1` [doxorubicin], for which the “concentrations at which cardiotoxic on the hMYO-hERG cell line” value with hMYO-hERG cells (hMYO-hERG cells, 48 hours treatment, FIG. 12A) is “above 50 μM”. Besides, it took 42.3 µM to reach half-maximal cytotoxicity in data set [1] (CC50 at 48 h). Further, at hERG, the “cardiotoxicity (known)” value is listed as “long-term cardiotoxicity” and the “hERG inhibitory activity (known)” value is on record as “only slight effects on hERG”.

Consider `C=C[C@H]1C[N@@]2CC[C@H]1C[C@@H]2[C@@H](O)c1ccnc2ccc(OC)cc12` [quinidine], for which the “cardiotoxicity on the hMYO-hERG cells” value with hMYO-hERG cells (at concentrations as high as 400 μM, compared to control vehicle at 400 μM) is reported as “not significantly cardiotoxic”.
